Measured values as given in ChEMBL document CHEMBL4396887, “Five-Membered N-Heterocyclic Scaffolds as Novel Amino Bioisosteres at γ-Aminobutyric Acid (GABA) Type A Receptors and GABA Transporters” (J Med Chem, 2019).
The source made the active and inactive calls. The rule behind the calls is not given here.

Columns and labels:
[1] = molecular target: T1, GABA-A receptor; alpha-1/beta-2/gamma-2 (Homo sapiens) (UniProt P14867+P47870+P18507); assay: Agonist activity at recombinant human GABA-A alpha1beta2gamma2S receptor transiently expressed in human tsA201 cells assessed as GABA-induced maximum response incubated for 30 mins and measured up to 90 secs by FMP dye based FLIPR membrane potential blue assay relative to GABA; format: cell-based
cells = format: cell-based; conditions: Homo sapiens, tsA201, 0.5 h
[2] = molecular target: Gamma-aminobutyric acid receptor subunit alpha-4/beta-2/gamma-2 (Homo sapiens, UniProt P18507+P47870+P48169); assay: Agonist activity at recombinant human GABA-A alpha4beta2gamma2S receptor transiently expressed in human tsA201 cells incubated for 30 mins and measured up to 90 secs by FMP dye based FLIPR membrane potential blue assay; format: cell-based; conditions: read-out: EC50
Gamma-aminobutyric acid receptor subunit alpha-4/beta-2/gamma-2 (Homo sapiens, UniProt P18507+P47870+P48169), sequence (P48169 whole entry, one chain of several): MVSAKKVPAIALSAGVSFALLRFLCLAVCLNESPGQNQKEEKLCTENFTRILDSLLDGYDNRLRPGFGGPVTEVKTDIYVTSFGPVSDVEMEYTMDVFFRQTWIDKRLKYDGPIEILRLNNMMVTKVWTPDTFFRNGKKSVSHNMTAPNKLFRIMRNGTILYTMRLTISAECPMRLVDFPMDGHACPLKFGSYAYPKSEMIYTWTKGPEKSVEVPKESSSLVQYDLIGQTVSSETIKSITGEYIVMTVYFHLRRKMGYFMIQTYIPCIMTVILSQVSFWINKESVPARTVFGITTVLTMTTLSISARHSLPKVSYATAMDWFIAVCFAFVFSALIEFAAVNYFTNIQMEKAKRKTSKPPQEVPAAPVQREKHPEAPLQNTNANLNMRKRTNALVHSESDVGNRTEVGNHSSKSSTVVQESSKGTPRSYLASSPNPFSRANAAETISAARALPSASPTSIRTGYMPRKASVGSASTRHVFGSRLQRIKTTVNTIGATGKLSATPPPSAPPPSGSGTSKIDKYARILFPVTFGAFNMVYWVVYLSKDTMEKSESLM

[3] = molecular target: T2, Gamma-aminobutyric acid receptor subunit alpha-4/beta-2/gamma-2 (Homo sapiens, UniProt P47870+P18507+P48169); assay: Agonist activity at recombinant human GABA-A alpha4beta2gamma2S receptor transiently expressed in human tsA201 cells assessed as GABA-induced maximum response incubated for 30 mins and measured up to 90 secs by FMP dye based FLIPR membrane potential blue assay relative to GABA; format: cell-based
[4] = molecular target: Gamma-aminobutyric acid receptor subunit rho-1 (Homo sapiens, UniProt P24046); assay: Agonist activity at recombinant human GABA-A rho-1 receptor transiently expressed in human tsA201 cells assessed as GABA-induced maximum response incubated for 30 mins and measured up to 90 secs by FMP dye based FLIPR membrane potential blue assay relative to GABA; format: cell-based
Gamma-aminobutyric acid receptor subunit rho-1, sequence (P24046 whole entry): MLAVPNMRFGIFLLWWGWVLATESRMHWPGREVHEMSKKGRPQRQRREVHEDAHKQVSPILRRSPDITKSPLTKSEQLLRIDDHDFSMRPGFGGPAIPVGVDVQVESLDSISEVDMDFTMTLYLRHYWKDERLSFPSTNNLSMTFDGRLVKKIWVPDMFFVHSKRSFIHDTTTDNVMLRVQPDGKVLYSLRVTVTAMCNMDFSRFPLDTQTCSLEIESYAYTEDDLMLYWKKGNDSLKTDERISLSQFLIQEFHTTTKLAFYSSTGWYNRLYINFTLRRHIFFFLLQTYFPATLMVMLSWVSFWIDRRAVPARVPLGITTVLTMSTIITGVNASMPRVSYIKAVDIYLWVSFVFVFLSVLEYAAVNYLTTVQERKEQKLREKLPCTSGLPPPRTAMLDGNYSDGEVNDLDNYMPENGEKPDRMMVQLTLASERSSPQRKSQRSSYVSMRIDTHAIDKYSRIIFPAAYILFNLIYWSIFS

[5] = Ionization constant, pKa2 of the compound at 1 mM by potentiometric titration assay; format: physicochemical
[6] = molecular target: T3, Sodium- and chloride-dependent GABA transporter 2 (Homo sapiens) (UniProt Q9NSD5); assay: Inhibition of human GAT2 expressed in Flp-In CHO cells assessed as reduction in [3H]GABA uptake at 100 uM incubated for 3 mins by liquid scintillation counting method relative to control; format: cell-based
T3 sequence (whole entry): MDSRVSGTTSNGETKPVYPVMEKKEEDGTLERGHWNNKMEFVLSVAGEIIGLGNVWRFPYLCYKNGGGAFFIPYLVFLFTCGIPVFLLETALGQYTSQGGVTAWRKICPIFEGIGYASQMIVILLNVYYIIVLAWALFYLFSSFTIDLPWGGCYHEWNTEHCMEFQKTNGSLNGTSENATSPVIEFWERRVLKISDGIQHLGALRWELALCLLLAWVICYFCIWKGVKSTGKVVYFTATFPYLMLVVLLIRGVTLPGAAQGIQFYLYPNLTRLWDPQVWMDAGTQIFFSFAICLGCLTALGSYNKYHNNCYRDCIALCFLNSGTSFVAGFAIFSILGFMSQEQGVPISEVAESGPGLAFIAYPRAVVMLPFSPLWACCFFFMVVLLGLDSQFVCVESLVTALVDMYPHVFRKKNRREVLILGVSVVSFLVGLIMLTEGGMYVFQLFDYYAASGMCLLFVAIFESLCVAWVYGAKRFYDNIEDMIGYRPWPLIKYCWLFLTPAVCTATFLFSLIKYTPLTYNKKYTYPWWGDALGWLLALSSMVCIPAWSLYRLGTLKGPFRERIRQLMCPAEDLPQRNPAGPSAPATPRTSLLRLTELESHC

[7] = molecular target: T4, GABA-A receptor; alpha-1/beta-2/gamma-2 (Homo sapiens, UniProt P14867+P47870+P18507); assay: (§1) Agonist activity at recombinant human GABA-A alpha1beta2gamma2S receptor transiently expressed in human tsA201 cells incubated for 30 mins and measured up to 90 secs by FMP dye based FLIPR membrane potential blue assay; format: cell-based
T4 sequence (P14867 whole entry): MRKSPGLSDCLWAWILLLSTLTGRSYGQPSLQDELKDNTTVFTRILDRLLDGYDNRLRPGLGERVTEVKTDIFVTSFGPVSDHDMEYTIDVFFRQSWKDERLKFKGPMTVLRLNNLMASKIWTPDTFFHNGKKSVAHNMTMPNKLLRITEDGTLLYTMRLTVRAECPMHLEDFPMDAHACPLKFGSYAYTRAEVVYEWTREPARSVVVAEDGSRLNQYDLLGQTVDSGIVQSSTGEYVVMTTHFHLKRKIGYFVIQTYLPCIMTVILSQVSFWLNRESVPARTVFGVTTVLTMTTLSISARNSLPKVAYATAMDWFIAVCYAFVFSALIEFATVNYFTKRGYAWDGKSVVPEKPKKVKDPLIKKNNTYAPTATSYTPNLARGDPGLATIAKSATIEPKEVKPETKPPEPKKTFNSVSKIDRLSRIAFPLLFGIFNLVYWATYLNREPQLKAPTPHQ
T4 sequence (P47870 whole entry): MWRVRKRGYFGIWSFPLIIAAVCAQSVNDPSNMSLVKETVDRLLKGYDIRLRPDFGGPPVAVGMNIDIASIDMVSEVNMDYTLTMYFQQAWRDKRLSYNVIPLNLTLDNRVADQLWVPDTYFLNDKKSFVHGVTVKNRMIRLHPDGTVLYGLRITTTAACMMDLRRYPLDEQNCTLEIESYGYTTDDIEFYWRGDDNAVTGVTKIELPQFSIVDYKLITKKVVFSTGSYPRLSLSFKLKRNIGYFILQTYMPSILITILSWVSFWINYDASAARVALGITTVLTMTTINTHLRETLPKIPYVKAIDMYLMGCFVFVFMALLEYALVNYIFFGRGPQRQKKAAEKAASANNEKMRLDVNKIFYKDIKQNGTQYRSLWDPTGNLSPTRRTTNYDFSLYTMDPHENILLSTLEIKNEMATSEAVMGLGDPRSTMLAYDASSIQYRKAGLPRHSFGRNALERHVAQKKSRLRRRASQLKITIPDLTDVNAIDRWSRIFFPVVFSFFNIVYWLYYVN
T4 sequence (P18507 whole entry): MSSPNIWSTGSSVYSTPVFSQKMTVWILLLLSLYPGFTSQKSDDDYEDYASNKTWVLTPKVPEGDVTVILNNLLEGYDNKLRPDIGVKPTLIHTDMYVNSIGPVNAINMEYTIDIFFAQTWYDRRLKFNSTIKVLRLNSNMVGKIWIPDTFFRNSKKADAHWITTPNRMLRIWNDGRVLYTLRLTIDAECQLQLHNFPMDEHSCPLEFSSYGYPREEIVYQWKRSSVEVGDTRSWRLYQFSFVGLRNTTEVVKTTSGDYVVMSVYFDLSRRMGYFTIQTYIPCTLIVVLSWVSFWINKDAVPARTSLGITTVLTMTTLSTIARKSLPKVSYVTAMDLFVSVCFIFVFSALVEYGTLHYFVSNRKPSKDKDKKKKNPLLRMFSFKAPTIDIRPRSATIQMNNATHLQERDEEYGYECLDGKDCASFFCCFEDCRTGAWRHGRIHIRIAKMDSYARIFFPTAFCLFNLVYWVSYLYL

[8] = molecular target: T1, GABA-A receptor; alpha-1/beta-2/gamma-2 (Homo sapiens); assay: as §1; format: cell-based
[9] = molecular target: T2, Gamma-aminobutyric acid receptor subunit alpha-4/beta-2/gamma-2; assay: Agonist activity at recombinant human GABA-A alpha4beta2gamma2S receptor transiently expressed in human tsA201 cells at >= 300 uM incubated for 30 mins and measured up to 90 secs by FMP dye based FLIPR membrane potential blue assay; format: cell-based

| Compound | Rmax [1] | EC50 (cells; read-out: EC50) | EC50 (cells; read-out: pEC50 (converted)) | EC50 [2] | Rmax [3] | Rmax [4] | pKa at 1000 µM [5] | inhibition [6] | EC50 [7] | pEC50 [8] | Activity [9] |
| --- | --- | --- | --- | --- | --- | --- | --- | --- | --- | --- | --- |
| NC1=NC(CC(=O)O)CS1 (stereo not drawn) | 86% | 1.1 µM | 1.1 µM | 1.3 µM | 93% | 43% | 8.62 | > 30% | – | – | – |
| CC(C(=O)O)C1CSC(N)=N1 (stereo in doubt; l-10b) | – | – | – | – | – | – | – | – | Not Active | – | – |
| C[C@@H](C(=O)O)[C@@H]1CSC(N)=N1 (relative stereo) | 22% | 36 µM | 35.5 µM | – | inactive | 35% | – | > 30% | – | – | – |
| NC1=NC(CC(=O)O)CN1 (stereo not drawn) | 81% | 12 µM | 11.5 µM | 14 µM | 81% | 64% | 10.1 | > 30% | – | – | – |
| O=C(O)CC1CNC=N1 (stereo not drawn) | 1% | 5.4 µM | 5.37 µM | 7.9 µM | 74% | 45% | 9.63 | > 30% | – | – | – |
| O=C(O)C[C@@H]1CCNC1 | inactive | – | – | – | inactive | inactive | – | > 30% | Not Active | inactive | Active |
| C[C@H]1SC(N)=N[C@@H]1CC(=O)O (relative stereo) | inactive | – | – | – | inactive | inactive | – | > 30% | Not Active | inactive | Active |
| C[C@@H]1SC(N)=N[C@@H]1CC(=O)O (relative stereo) | inactive | 54 µM | 55 µM | – | inactive | – | – | > 30% | Not Active | inactive | Active |
| O=C(O)C[C@H]1CCNC1 | 93% | 5.6 µM | 5.62 µM | 8.1 µM | 94% | 101% | – | > 30% | – | – | – |
| C[C@@H](C(=O)O)[C@H]1CSC(N)=N1 (relative stereo) | 59% | 17 µM | 16.6 µM | – | inactive | – | – | > 30% | – | – | – |
| CC(C(=O)O)C1CSC(N)=N1 (stereo in doubt; l-10a) | – | 30 µM | 30.2 µM | 26 µM | – | – | – | – | – | – | – |
